Values quoted from earlier work as cited in US20040062754A1, “Photopheresis treatment of chronic HCV infections” (priority 1996, published 2004).

Assays:
[1] = system: progressive systemic sclerosis; details: 56 patients enrolled

**Q.** For CC(C)(S)[C@@H](N)C(=O)O [D-penicillamine], which response rate [1] is on record?
**A.** 32%

**Q.** For Nc1nc2c(ncn2COCCO)c(=O)[nH]1 [acyclovir], which “benefit in chronic hepatitis C” value (hepatitis C virus; in vivo) is on record?
**A.** little benefit

**Q.** Which “sustained response off treatment” value (hepatitis C virus; six month course, 3 million units three times a week) does the source give for interferon alpha-2b, recombinant here?
**A.** 18%

**Q.** Which “relapse rate after interferon therapy” value (hepatitis C virus; in vivo) does the source give for interferon-alpha here?
**A.** 80-85%

**Q.** And the “patients with normal LFTs and nondetectable HCV RNA by RT-PCR seven years later” value (hepatitis C virus; ten patients, subcutaneous injections for up to a year)?
**A.** Six
